# Tests used:
# SK-MEL-28 mitochondria = test: LC-MS/MS quantification of Q10, Q10H2 and Q9 in mitochondrial enriched samples; type: cell-based; conditions: for Q10 in mitochondrial enriched sample: 100 μM Q10 in the media; for increase in mitochondrial Q10 levels: 100 μM Q10
# Procedure: To control for sample variance in total material, the levels of cholesterol was also measured to confirm that the differences were not due to sample size errors.
# a variety of cell types = test: Western blot analysis (Bcl-xL, Vimentin, oxidative phosphorylation and mitochondrial membrane proteins); type: cell-based; conditions: 50 or 100 μM Q10
# Procedure: Approximately 50 μg of protein were assayed per sample by immunoblotting. All treatments were run in triplicate with controls. […] The primary antibodies were incubated overnight at 4 degrees C. in a 5% BSA and TBST solution. Secondary antibodies were incubated for one hour at 4 degrees. All antibodies were purchased from Cell Signaling Technology. Antibodies were used at a ratio of 1:1000, with the exception of PActin at a ratio of 1:5000. Blots were developed and results were quantified using the NIH Java based densitometer analysis software Image J. All blots were also probed for and normalized to their respective PActin expression.
# The first experiment processed and evaluated by Western blot and 2-D gel electrophoresis was carried out on the skin cancer cell line SKMEL-28.
# A variety of cell types were evaluated by Western blot analysis against an antibody for Bcl-xL (FIG. 14), an antibody for Vimentin (FIG. 15), a series of antibodies for mitochondrial oxidative phosphorylation function (FIGS. 16-21) and against a series of antibodies related to mitochondrial membrane integrity (FIGS. 22-27).
# [1] = system: HepG2 (liver cancer) cells; test: PCR Diabetes Array; type: cell-based
# Procedure: The treatment was initiated on 1×10^5 cells per well, following the procedure utilized in the PaCa2 cells (above, Examples 9-11). However, the total amount of RNA that was extracted from these samples was lower than expected. Reverse transcription is normally done using 1 μg of total RNA (determined by measurement at 260 nm). The maximum volume that can be used per reverse transcription is 8 μl.
# HepG2 liver cancer cells = test: ApoStrand ELISA apoptosis assay (single-stranded DNA); type: cell-based
# Excerpt: The ApoStrand™ ELISA is based on the sensitivity of DNA in apoptotic cells to formamide denaturation and the detection of the denatured DNA with a monoclonal antibody to single-stranded DNA (ssDNA).
# [2] = system: PaCa-2 pancreatic cancer cells; test: Oxygen consumption rate (OCR), SeaHorse XF analyzer; type: cell-based; conditions: absence and presence of stressors (FIG. 32)
# Excerpt: (§1) Environmental influencers (e.g., MIMs or Epi-shifters) may also be identified by changes in cellular energetics. One example of the measurement of cellular energetics are the real-time measures of the consumption of molecular oxygen and/or the change in pH of the media of a cell culture. For example, the ability of a potential epi-shifter to modulate the metabolic state of a cell may be analyzed using, for example, the XF24 Analyzer (Seahorse, Inc.). This technology allows for real time detection of oxygen and pH changes in a monolayer of cells in order to evaluate the bioenergetics of a cell microenvironment. The XF24 Analyzer measures and compares the rates of oxygen consumption (OCR), which is a measure of aerobic metabolism, and extracellular acidification (ECAR), which is a measure of glycolysis, both key indicators of cellular energetics.
# (§2) (SeaHorse Biosciences Inc, North Billerica, Mass.).
# (§3) In contrast, cancer cells (e.g., MCF-7, PaCa-2) are inherently primed to culture at higher levels of glucose compared to normal cells due to their glycolytic phenotype for maintenance in culture.
# [3] = system: MCF-7 breast cancer cells; test: as above; type: cell-based; conditions: absence and presence of stressors (FIG. 31)
# Excerpt: as §1, §2, §3
# HDFa cells = test: Extracellular acidification rate (ECAR), SeaHorse XF analyzer; type: cell-based, human
# Excerpt: as §1, §2
# In this experiment, the OCR and extracellular acidification rate (ECAR) in normal cells lines were obtained in the presence and absence of CoQ10 to determine baseline values. It was observed that in its native nutrient environment, the basal OCR rates in normal cells lines are different, and are usually a function of the physiological roles of the cells in the body.
# Table 51 below describes the ECAR values (mpH/min) in HDFa cells in the presence or absence of CoQ10 under normoxic and hypoxic conditions at 5.5 mM and 22 mM glucose.
# PaCa-2 cells = test: as above; type: cell-based; conditions: normoxia, high glucose (17 mM)
# Excerpt: as §1, §2
# In contrast to normal cells, cancer cells are phenotypically primed to use high glucose for ATP generation (enhanced glycolysis) resulting in higher ECAR (Table 53, ECAR for untreated normoxia 17 mM) at 21 mpH/min. […] The associated decrease in OCR in these cells was likely associated with increased efficiency of the mitochondrial OXPHOS.
# [4] = system: Succinate Dehydrogenase (SDH) Subunit B; test: Western blot, Succinate Dehydrogenase B in mitochondrial preparations; type: cell-based; conditions: for Succinate Dehydrogenase B Average Normalized Volume: NCIE0808 Mitopreps
# Procedure: The above blots were stripped by incubating for 30 minutes with methanol, followed by two 10 minute washes with TBS-T, then 30 minutes of incubation with Stripping buffer at 50 deg C., and followed by two washes with 100 ml or more of TBS-T for 30′ each. The blots were scanned in laser scanner to check for complete stripping. The blots were activated with methanol for 5 seconds, washed with water for 5 minutes, and TBST for 15 minutes. The blots were blocked for 1 hour with 5% blocking reagent in TBS-T at room temperature and then washed 3 times with TBS-T (1×-15′; 2×5′ each) and probed with the primary antibody for PKM2, SDHB or SDHC in 5% BSA in TBS-T by incubation overnight at 4 deg C. with gentle shaking. The primary antibody for SDHC (ABNOVA H00006391-MO2; antimouse) was at 1:500 dilution. The primary antibody for SDHB was from Abcam ab4714-200; antimouse; at 1:1000 dilution. The primary antibody for Pyruvate Kinase M2 (PKM2) was from Novus Biologicals H00005315-D0IP; antirabbit; at 1:500 dilution. After incubation with primary antibodies, the membranes were washed 3 times with TBS-T (1×-15′; 2×5′ each) and probed with the secondary antibody (SDHB & C antimouse; and PKM2 antirabbit; 1:10,000 dilution) for 1 h on the orbital tilting shaker at room temperature. After 1 h of incubation, the blots were washed 3 times with TBS-T (1×-15′; 2×5′ each) and incubated with ECF reagent for 5 minutes and then each blot scanned with 5100 Fuji Laser scanner at 25 uM resolution, 16 bit, green laser, at 400V and at 500 V.
smiles,measurement,setting,value
"COC1=C(OC)C(=O)C(C/C=C(\C)CC/C=C(\C)CC/C=C(\C)CC/C=C(\C)CC/C=C(\C)CC/C=C(\C)CC/C=C(\C)CC/C=C(\C)CC/C=C(\C)CCC=C(C)C)=C(C)C1=O [Q10, Coenzyme Q10]",Q10 in mitochondrial enriched sample,SK-MEL-28 mitochondria; 6 hr,7.21 ng/Sample
same,increase in mitochondrial Q10 levels,SK-MEL-28 mitochondria; 19 hours,~3 fold
same,Q10 in mitochondrial enriched sample,SK-MEL-28 mitochondria; 19 hr,16.77 ng/Sample
same,increase in mitochondrial Q10 levels,SK-MEL-28 mitochondria; 48 hour,~6 fold
same,Q10 in mitochondrial enriched sample,SK-MEL-28 mitochondria; 48 hr,46.63 ng/Sample
same,form of Q10 in mitochondria,SK-MEL-28 mitochondria; exogenous Q10 added to media,maintained in the supplied oxidized form
same,levels of examined proteins (Western blot),a variety of cell types,upregulated or downregulated
same,PPARGC1A mRNA downregulated,"[1]; 100 μM Q10, 16 hours",approximately 20 fold
same,PRKAA1 mRNA downregulated,"[1]; 100 μM Q10, 16 hours",~6 fold
same,SNAP25 mRNA downregulated,"[1]; 100 μM Q10, 16 hours",~5 fold
same,PPARGC1A mRNA,"[1]; 100 μM Q10, 48 hours",normalized or were slightly upregulated
same,PRKAA1 mRNA,"[1]; 100 μM Q10, 48 hours",normalized or were slightly upregulated
same,SNAP25 mRNA downregulated,"[1]; 100 μM Q10, 48 hours",approximately 2 fold
same,detectable apoptosis (ApoStrand ELISA),HepG2 liver cancer cells; 50 μM Q10,17%
same,detectable apoptosis (ApoStrand ELISA),HepG2 liver cancer cells; 100 μM Q10,32%
same,OCR values,[2],consistent reduction
same,OCR values,[3],consistent reduction
same,ECAR,"HDFa cells; high glucose hypoxic conditions, to value of untreated normoxic conditions",lowering of elevated ECAR
same,ECAR values,"HDFa cells; normal cells, normoxic and hypoxic, 5.5 mM and 22 mM glucose",minimal influence
same,ECAR rates,PaCa-2 cells,significant decrease
same,Succinate Dehydrogenase B Average Normalized Volume,"[4]; 50 uM, 6 h",1077
same,Succinate Dehydrogenase B Average Normalized Volume,"[4]; 100 uM, 3 h",964
same,Succinate Dehydrogenase B Average Normalized Volume,"[4]; 100 uM, 6 h",934
same,SDH protein levels in the mitochondrion,[4]; mitochondrial preparations of cancer cells,increase

# From US20110020312A1, “METHODS FOR TREATMENT OF METABOLIC DISORDERS USING EPIMETABOLIC SHIFTERS, MULTIDIMENSIONAL INTRACELLULAR MOLECULES, OR ENVIRONMENTAL INFLUENCERS” (priority 2009, published 2011)
